Data reported in US7531555B2, “Compositions and methods for selective inhibition of nicotine acetylcholine receptors” (University of Florida Research Foundation, Inc., priority 2003, dated 2009).
Where two headings read alike, the source gives them in different places.

Assays:
mice = experiment: Locomotor activity, nicotine-induced hypomotility; assay type: in vivo; conditions: for Locomotor Activity # Interrupts (Mean ± SEM): s.c.
Protocol: (§1) Animals. Male ICR mice (20-25 g) obtained from Harlan Laboratories (Indianapolis, Ind.) were used throughout the study. Animals were housed in groups of six and had free access to food and water. Adult, male Long-Evans rats (350-460 g), obtained from Harlan (Dublin, Va.), were individually housed in a temperature-controlled (20-22° C.) environment with a 12-hour light-dark cycle (lights on at 7 a.m.). Rats were maintained within the indicated weight range by restricted post-session feeding and had ad libitum water in their home cages. Rats were drug-naive at the beginning of the study. Animals were housed in an AALAC approved facility and the study was approved by the Institutional Animal Care and Use Committee of Virginia Commonwealth University.
Locomotor activity. Mice were placed into individual Omnitech photocell activity cages (28×16.5 cm) immediately after s.c. administration of either 0.9% saline or nicotine (6.2 μmol/kg or 1 mg/kg) and were allowed to acclimate for 10 minutes. Interruptions of the photocell beams (two banks of eight cells each) were then recorded for the next 10 minutes. Data were expressed as percentage of depression where % depression=[1−(counts from nicotine-treated animals/counts from vehicle-treated animals)]×100. Mice were pretreated s.c. with either saline or TMPH 10 minutes before nicotine.
Eight to twelve mice were tested in each treatment group and each animal was tested only once.
(§2) Statistical analysis. Statistical analysis of all analgesic and in vivo studies was performed using either t-test or analysis of variance (ANOVA) with Tukey's test post hoc test when appropriate. All differences were considered significant at p<0.05. AD50 values with 95% CL for behavioral data were calculated by unweighted least-squares linear regression as described by Tallarida and Murray (Tallarida and Murray Manual of Pharmacological Calculations with Computer Programs. 1987, Springer-Verlag, New York).

rats = experiment: Nicotine drug discrimination in rats; assay type: in vivo
Protocol: as §1, §2

[1] = molecular target: T1, α7 homomeric neuronal nAChR (Rattus norvegicus, UniProt Q05941); experiment: Voltage clamp of Xenopus oocytes expressing α7 nAChR; assay type: cell-based
T1 construct: expressed in transfected cells; host or cells: Xenopus laevis oocytes injected with cRNA; clone from Dr. Jim Boulter (UCLA)
T1 sequence (Q05941 23-502): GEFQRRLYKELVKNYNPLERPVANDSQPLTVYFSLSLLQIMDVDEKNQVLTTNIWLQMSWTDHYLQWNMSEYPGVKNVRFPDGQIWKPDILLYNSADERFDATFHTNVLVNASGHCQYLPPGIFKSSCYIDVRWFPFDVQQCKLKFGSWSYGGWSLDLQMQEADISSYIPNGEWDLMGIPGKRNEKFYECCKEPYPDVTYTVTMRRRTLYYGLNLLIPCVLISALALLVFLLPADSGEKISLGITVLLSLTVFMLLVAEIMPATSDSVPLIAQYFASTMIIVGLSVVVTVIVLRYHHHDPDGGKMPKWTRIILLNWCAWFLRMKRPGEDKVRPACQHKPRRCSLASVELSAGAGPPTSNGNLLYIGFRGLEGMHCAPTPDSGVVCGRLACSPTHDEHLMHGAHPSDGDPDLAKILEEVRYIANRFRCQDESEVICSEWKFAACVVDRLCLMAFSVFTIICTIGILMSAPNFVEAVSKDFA
Protocol: (§3) Mature (>9 cm) female Xenopus laevis African frogs (NASCO, Ft. Atkinson, Wis.) were used as a source of oocytes. Prior to surgery, frogs were anesthetized by placing the animal in a 1.5 g/l solution of MS222 (3-aminobenzoic acid ethyl ester) for 30 minutes. Oocytes were removed from an incision made in the abdomen.
(§4) In order to remove the follicular cell layer, harvested oocytes were treated with 1.25 mg/ml collagenase from Worthington Biochemical Corporation (Freehold, N.J.) for 2 hours at room temperature in calcium-free Barth's solution (88 mM NaCl, 10 mM HEPES pH 7.6, 0.33 mM MgSO4, 0.1 mg/ml gentamicin sulfate). Subsequently, stage 5 oocytes were isolated and injected with 50 nl (5-20 ng) each of the appropriate subunit cRNAs. Recordings were made 2 to 15 days after injection.
(§5) Rat neuronal nAChR clones and mouse muscle nAChR cDNA clones were used. The wild-type clones were obtained from Dr. Jim Boulter (UCLA). The rat α6/3 (Dowell et al. J Neurosci, 2003, 23:8445-8452) clone was obtained from Michael McIntosh (University of Utah) and expressed in Xenopus oocytes in combinations with rat β2 and β3. […] The TM2 domain is understood to line the pore of the channel, with alpha helix structure. The 7′ position may actually be directed away from the actual pore lining, but this residue is highly conserved in all of the nAChR. It is valine in all of them except α9 (isoleucine) and β1, where it is alanine. The TM2 mutation in the α6/3 chimera was corrected by using QuickChange (Stratagene) according to their protocols. The corrected α6/3 chimera sequence was confirmed by restriction diagnostics and by automated fluorescent sequencing (University of Florida core facility). The corrected clone was expressed as above in Xenopus oocytes with β2 and β3 and compared to the wild-type α3 co-expressed with β2 and β3.
(§6) After linearization and purification of cloned cDNAs, RNA transcripts were prepared in vitro using the appropriate mMessage mMachine kit from Ambion Inc. (Austin, Tex.).
(§7) Electrophysiology. The majority of experiments were conducted using OpusXpress 6000A (Axon Instruments, Union City Calif.). OpusXpress is an integrated system that provides automated impalement and voltage clamp of up to eight oocytes in parallel. Cells were automatically perfused with bath solution, and agonist solutions were delivered from a 96-well plate. Both the voltage and current electrodes were filled with 3 M KCl. The agonist solutions were applied via disposable tips, which eliminated any possibility of cross-contamination. Drug applications alternated between ACh controls and experimental applications. Flow rates were set at 2 ml/min for experiments with α7 receptors and 4 ml/min for other subtypes. Cells were voltage-clamped at a holding potential of −60 mV. Data were collected at 50 Hz and filtered at 20 Hz. Agonist applications were 12 seconds in duration followed by 181-second washout periods for α7 receptors and 8 seconds with 241-second wash periods for other subtypes. For some experiments, particularly under conditions where residual inhibition precluded making repeated measurements from single cells (see below), manual oocyte recordings were made as previously described (Papke and Papke Br J of Pharmacol, 2002, 137:49-61). In brief, Warner Instruments (Hamden, Conn.) OC-725C oocyte amplifiers were used, and data were acquired with a minidigi or digidata 1200A with pClamp9 software (Axon Instruments). Sampling rates were between 10 and 20 Hz and the data were filtered at 6 Hz. Cells were voltage clamped at a holding potential of −50 mV.
(§8) Experimental protocols and data analysis. Each oocyte received two initial control applications of ACh, an experimental drug application (or co-application of ACh and TMPH), and then follow-up control application(s) of ACh. The control ACh concentrations for α1β1γδ, α3β4, α4β2, α3β2, α3β2α5, α3β2β3, α6/3β2β3 α6β4β3 and α7, receptors were 30 μM, 100 μM, 10 μM, 30 μM, 1 μM 100 μM 100 μM 100 μM and 300 μM, respectively. […]

Rat α3β2 = molecular target: T2, Rat α3β2 (Rattus norvegicus, UniProt P04757+P12390); experiment: Voltage clamp of Xenopus oocytes expressing rat α3β2 nAChR; assay type: cell-based
T2 construct: expressed in transfected cells; host or cells: Xenopus laevis oocytes injected with subunit cRNAs; clones from Dr. Jim Boulter (UCLA)
T2 sequence (P04757 26-499): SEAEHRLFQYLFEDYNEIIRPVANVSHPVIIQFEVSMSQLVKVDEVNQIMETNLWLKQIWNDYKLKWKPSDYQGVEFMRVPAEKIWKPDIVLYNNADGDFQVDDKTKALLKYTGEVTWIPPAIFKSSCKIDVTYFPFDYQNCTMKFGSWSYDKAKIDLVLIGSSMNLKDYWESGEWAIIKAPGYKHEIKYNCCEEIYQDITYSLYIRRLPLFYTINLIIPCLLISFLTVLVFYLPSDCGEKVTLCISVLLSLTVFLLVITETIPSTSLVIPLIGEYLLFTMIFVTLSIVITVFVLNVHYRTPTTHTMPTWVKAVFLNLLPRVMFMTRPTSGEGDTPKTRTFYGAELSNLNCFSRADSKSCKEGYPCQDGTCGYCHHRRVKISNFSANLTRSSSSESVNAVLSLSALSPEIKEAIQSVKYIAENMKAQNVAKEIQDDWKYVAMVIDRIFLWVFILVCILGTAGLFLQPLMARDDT
T2 sequence (P12390 25-500): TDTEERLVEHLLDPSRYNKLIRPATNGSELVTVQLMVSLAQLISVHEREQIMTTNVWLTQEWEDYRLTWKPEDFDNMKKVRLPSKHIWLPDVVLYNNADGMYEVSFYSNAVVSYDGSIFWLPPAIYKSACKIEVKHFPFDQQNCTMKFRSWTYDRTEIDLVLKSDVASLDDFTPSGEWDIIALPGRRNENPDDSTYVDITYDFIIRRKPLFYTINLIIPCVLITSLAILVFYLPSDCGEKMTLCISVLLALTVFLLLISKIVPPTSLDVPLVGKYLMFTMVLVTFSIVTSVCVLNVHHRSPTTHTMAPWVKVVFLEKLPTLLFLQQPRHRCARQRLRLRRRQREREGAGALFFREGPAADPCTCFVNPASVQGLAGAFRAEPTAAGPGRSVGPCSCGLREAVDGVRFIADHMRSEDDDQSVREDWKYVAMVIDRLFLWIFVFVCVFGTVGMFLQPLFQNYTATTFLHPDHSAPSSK
Protocol: as §3, §4, §5, §6, §7, §8

[2] = inhibition still present after 5-minute wash, read-out: IC50 (recovery)

CCCCCCC(=O)OC1CC(C)(C)NC(C)(C)C1 [TMPH, 2,2,6,6-tetramethylpiperidin-4-yl heptanoate]
effect on hypomotility induced by nicotine (mice; TMPH 20 mg/kg s.c. 15 minutes prior to nicotine (1.5 mg/kg)): failed to significantly reduce
Locomotor Activity # Interrupts (Mean ± SEM) (mice; TMPH (20 mg/kg)/Nicotine (1.5 mg/kg)): 397 ± 170 # Interrupts
Locomotor Activity # Interrupts (Mean ± SEM) (mice; TMPH (20 mg/kg)/Saline): 2031 ± 160 # Interrupts
blockade of nicotine-induced hypomotility (mice; TMPH @ 20 mg/kg): 0% blockade @ 20
effect of TMPH by itself on locomotor activity (mice; s.c. injection, at the indicated doses and times): did not have a significant effect
effect of TMPH-nicotine combination on response rates (rats; compared to vehicle, any dose combination tested, p>0.05): did not alter response rates
nicotine-lever responding by TMPH alone (rats; doses at which antagonism was observed (data not shown)): did not produce nicotine-lever responding
reversibility of inhibition ([1]; after a 5-minute wash): significant recovery
IC50 ([1]; decrease in net charge, 300 μM ACh co-applied with TMPH, read-out: IC50 (area)): 1.2 ± 0.2 µM
IC50 ([1]; decrease in peak current amplitude, 300 μM ACh co-applied with TMPH, read-out: IC50 (peak)): 1 ± 0.1 µM
IC50 [1, 2]: 16 ± 4 µM
IC50 net charge/IC50 peak ([1]; ratio): 1.2
IC50 recovery/IC50 net charge ([1]; ratio): 13.3
use-independent inhibition, TMPH applied alone (Rat α3β2; 1 μM TMPH alone, after the washout period): no detectable effect
IC50 (Rat α3β2; decrease in net charge, 30 μM ACh co-applied with TMPH, read-out: IC50 (area)): 0.44 ± 0.09 µM
IC50 (Rat α3β2; decrease in peak current amplitude, 30 μM ACh co-applied with TMPH, read-out: IC50 (peak)): 3.7 ± 1.2 µM
reversibility of inhibition (Rat α3β2; following a 5-minute wash): virtually no recovery
IC50 (Rat α3β2; [2]): 0.23 ± 0.03 µM
IC50 net charge/IC50 peak (Rat α3β2; ratio): 0.12
IC50 recovery/IC50 net charge (Rat α3β2; ratio): 0.52
